Cell viability data for seven molecules are collected here from the supplement of paper PMC8092582.

The test system of the assay is HeLa. Nature of the assay: cell viability (CellTiter-Glo) relative to median of lowest-dilution wells of all drugs (fraction); higher = more viable cells. The procedure:
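HeLa control and CRISPR DDX11 knockout cells were seeded in 384-well plates and incubated for 72 h with each of 64 […] drugs at six concentrations. Viability was read with CellTiter-Glo and normalised to the median of the lowest (6th) dilution wells of all drugs. Two biological replicates (BR1, BR2) are averaged; the concentration unit is not stated.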

Where [1] appears, read: drug concentration (unit not stated): 0.04, genotype: DDX11 knockout.
Setting [2] is: drug concentration (unit not stated): 0.04, genotype: control (DDX11 wild type).
Where [3] appears, read: drug concentration (unit not stated): 0.12, genotype: DDX11 knockout.
Where [4] appears, read: drug concentration (unit not stated): 0.12, genotype: control (DDX11 wild type).
[5] abbreviates: drug concentration (unit not stated): 0.37, genotype: DDX11 knockout.
Where [6] appears, read: drug concentration (unit not stated): 0.37, genotype: control (DDX11 wild type).
[7] abbreviates: drug concentration (unit not stated): 1.11, genotype: DDX11 knockout.
Where [8] appears, read: drug concentration (unit not stated): 1.11, genotype: control (DDX11 wild type).
[9] abbreviates: drug concentration (unit not stated): 3.33, genotype: DDX11 knockout.
Where [10] appears, read: drug concentration (unit not stated): 3.33, genotype: control (DDX11 wild type).
The mark [11] stands for this setting: drug concentration (unit not stated): 10, genotype: DDX11 knockout.
[12] abbreviates: drug concentration (unit not stated): 10, genotype: control (DDX11 wild type).
The mark [13] stands for this setting: drug concentration (unit not stated): 0.01, genotype: DDX11 knockout.
[14] abbreviates: drug concentration (unit not stated): 0.01, genotype: control (DDX11 wild type).
[15] abbreviates: drug concentration (unit not stated): 30, genotype: DDX11 knockout.
Where [16] appears, read: drug concentration (unit not stated): 30, genotype: control (DDX11 wild type).

SMILES strings stand for the structures. ± gives the standard deviation of the averaged measurements.

For the molecule `O=C(c1cc(Cc2n[nH]c(=O)c3ccccc23)ccc1F)N1CCN(C(=O)C2CC2)CC1` [Olaparib], the cell viability was determined as 1.072 ± 0.0052 under setting [1]; 1.02 ± 0.032 under setting [2]; 1.02 ± 0.024 under setting [3]; 1.04 ± 0.043 under setting [4]; 0.953 ± 0.063 under setting [5]; 0.959 ± 0.036 under setting [6]. For the same molecule, the cell viability under setting [7] came to 0.954 ± 0.037; the cell viability under setting [8] turned out to be 0.967 ± 0.035; the cell viability under setting [9] is 0.796 ± 0.076; the cell viability under setting [10] worked out at 0.987 ± 0.011; the cell viability under setting [11] came out at 0.677 ± 0.083; the cell viability under setting [12] amounted to 1.01 ± 0.066.
Regarding `CC(=O)O[C@H]1C(=O)[C@@]2(C)[C@H]([C@H](OC(=O)c3ccccc3)[C@]3(O)C[C@H](OC(=O)[C@H](O)[C@@H](NC(=O)c4ccccc4)c4ccccc4)C(C)=C1C3(C)C)[C@]1(OC(C)=O)CO[C@@H]1C[C@@H]2O` [Paclitaxel (Taxol)], the cell viability is, setting by setting: under setting [13], 0.44 ± 0.12; under setting [14], 0.515 ± 0.11; under setting [1], 0.26 ± 0.017; under setting [2], 0.379 ± 0.11; under setting [3], 0.203 ± 0.0074; under setting [4], 0.148 ± 0.021. Further, the cell viability was 0.2001 ± 0.00037 under setting [5]; 0.169 ± 0.016 under setting [6]; 0.197 ± 0.031 under setting [7]; 0.2 ± 0.042 under setting [8]; 0.179 ± 0.033 under setting [9]; 0.139 ± 0.0065 under setting [10].
In the case of `CC(=O)c1c(C)c2cnc(Nc3ccc(N4CCNCC4)cn3)nc2n(C2CCCC2)c1=O` [Palbociclib], the cell viability was found to be 1.02 ± 0.084 under setting [3]; 1.017 ± 0.00052 under setting [4]; 1.0721 ± 0.001 under setting [5]; 1.01 ± 0.017 under setting [6]; 1.009 ± 0.0063 under setting [7]; 1.02 ± 0.025 under setting [8]. Besides, the cell viability runs as follows: under setting [9], 1.03 ± 0.054; under setting [10], 1.01 ± 0.022; under setting [11], 0.9 ± 0.0099; under setting [12], 0.986 ± 0.11; under setting [15], 0.658 ± 0.045; under setting [16], 0.893 ± 0.26.
For `Nc1nc2[nH]cc(CCc3ccc(C(=O)N[C@@H](CCC(=O)O)C(=O)O)cc3)c2c(=O)[nH]1` [Pemetrexed], the cell viability by setting is: under setting [13], 1 ± 0.099; under setting [14], 0.99 ± 0.11; under setting [1], 0.983 ± 0.29; under setting [2], 0.903 ± 0.41; under setting [3], 0.911 ± 0.26; under setting [4], 0.98 ± 0.53. Also, the cell viability runs as follows: under setting [5], 0.781 ± 0.21; under setting [6], 0.814 ± 0.4; under setting [7], 0.741 ± 0.18; under setting [8], 0.756 ± 0.34.
Regarding `CO[C@H]1C[C@@H]2CC[C@@H](C)[C@@](O)(O2)C(=O)C(=O)N2CCCC[C@H]2C(=O)O[C@H]([C@H](C)C[C@@H]2CC[C@@H](O)[C@H](OC)C2)CC(=O)[C@H](C)/C=C(\C)[C@@H](O)[C@@H](OC)C(=O)[C@H](C)C[C@H](C)/C=C/C=C/C=C/1C` [Rapamycin (Sirolimus)], the cell viability under setting [13] is 0.764 ± 0.11; the cell viability under setting [14] was 0.916 ± 0.33; the cell viability under setting [1] came out at 0.755 ± 0.13; the cell viability under setting [2] was 0.883 ± 0.33; the cell viability under setting [3] amounted to 0.786 ± 0.18; the cell viability under setting [4] was determined as 0.887 ± 0.33. Besides, the cell viability by setting is: under setting [5], 0.706 ± 0.11; under setting [6], 0.903 ± 0.33; under setting [7], 0.718 ± 0.11; under setting [8], 0.878 ± 0.35; under setting [9], 0.67 ± 0.12; under setting [10], 0.84 ± 0.35.
For `CC[C@H](CO)Nc1nc(NCc2ccccc2)c2ncn(C(C)C)c2n1` [Seliciclib (Roscovitine)], the cell viability came to 0.992 ± 0.018 under setting [3]; 0.946 ± 0.036 under setting [4]; 1.008 ± 0.0031 under setting [5]; 0.98 ± 0.018 under setting [6]; 1.04 ± 0.021 under setting [7]; 1 ± 0.033 under setting [8]. Moreover, the cell viability reads like this: under setting [9], 1 ± 0.012; under setting [10], 0.994 ± 0.038; under setting [11], 1.01 ± 0.051; under setting [12], 1.028 ± 0.008; under setting [15], 0.577 ± 0.26; under setting [16], 0.893 ± 0.38.
Take `Cn1cnc2c(F)c(Nc3ccc(Br)cc3Cl)c(C(=O)NOCCO)cc21` [Selumetinib (AZD6244)]: the cell viability by setting is: under setting [1], 0.991 ± 0.022; under setting [2], 0.985 ± 0.059; under setting [3], 0.963 ± 0.029; under setting [4], 0.957 ± 0.085; under setting [5], 0.9 ± 0.078; under setting [6], 0.95 ± 0.15. Also, the cell viability by setting is: under setting [7], 0.902 ± 0.082; under setting [8], 0.955 ± 0.12; under setting [9], 0.855 ± 0.067; under setting [10], 0.935 ± 0.22; under setting [11], 0.744 ± 0.13; under setting [12], 0.913 ± 0.38.
